Laboratory results taken from patent US7858608B2, “Bile acid derivatives as FXR ligands for the prevention or treatment of FXR-mediated diseases or conditions” (Intercept Pharmaceuticals, Inc., priority 2006, dated 2010).
Where two headings read alike, the source gives them in different places.

Experiments:
[1] = tested on: FXR regulated genes (SHP, CYP7α1, SREPB-1c, FAS, BSEP); conditions: human, 18 h, 10 μM
Source text: Human hepatocyte cell line HepG2 was used for these studies.
The effects of these ligands on FXR responsive genes was then investigated by quantitative reverse transcription PCR (qRT-PCR).

[2] = tested on: HepG2 cells; test: Direct cell toxicity on exposure of HepG2 cells; format: cell-based, human; conditions: HepG2 cells exposed to the ligands
[3] = tested on: FXR or other nuclear receptors; test: Liver cells transfected with viral constructs carrying FXR or other nuclear receptors upstream of the luciferase gene; format: cell-based; conditions: mouse, rat, and human hepatocytes, luciferase reporter
[4] = target: T1, FXR (Homo sapiens, UniProt Q96RI1); test: Cell-free FRET assay, recruitment of the SRC1 peptide to FXR; format: biochemical; conditions: for Potency in activating FXR relative to CDCA (concentration for Scr-1 recruitment lower than CDCA): cell-free FRET assay, versus CDCA
T1 sequence (Q96RI1 1-486): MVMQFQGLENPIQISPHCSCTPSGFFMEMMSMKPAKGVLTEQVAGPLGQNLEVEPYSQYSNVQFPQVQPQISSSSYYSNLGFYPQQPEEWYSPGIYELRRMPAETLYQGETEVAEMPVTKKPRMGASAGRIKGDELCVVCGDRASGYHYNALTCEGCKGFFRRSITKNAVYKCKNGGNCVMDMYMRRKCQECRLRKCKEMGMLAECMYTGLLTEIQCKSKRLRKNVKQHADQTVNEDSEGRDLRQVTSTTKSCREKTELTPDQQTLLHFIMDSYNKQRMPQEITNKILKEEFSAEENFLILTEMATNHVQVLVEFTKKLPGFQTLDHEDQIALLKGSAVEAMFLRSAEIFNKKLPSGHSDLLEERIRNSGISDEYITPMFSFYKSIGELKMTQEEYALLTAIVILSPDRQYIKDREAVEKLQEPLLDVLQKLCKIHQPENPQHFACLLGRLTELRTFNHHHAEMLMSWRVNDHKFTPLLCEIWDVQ
Source text: This technology, a cell free assay, is described in […]., et al. J Med Chem. 2002 15; 45:3569-72).

[5] = target: T1, FXR; test: Cell transfection (transactivation) assay in HepG2 cell line; format: cell-based; set-up: expressed in transfected cells; host or cells: HepG2; conditions: HepG2 cells, 1 μM
Description: It was also evaluated if compound (Ia) modulated FXR-regulated genes in a cellular assay using a human hepatocyte cell line (HepG2). […] A detailed description of these methods can be found in the following reference: Fiorucci S., et al. Gastroenterology 2004.

Compound | Induction of SHP expression [1] | Reduction of the expression of CYP7α1 mRNA [1] | Direct cell toxicity [2] | Induction of BSEP mRNA expression [1] | melting point [°C] | Selectivity for FXR over other nuclear receptors [3] | Efficacy (relative recruitment of the SRC1 peptide to FXR where CDCA = 100%) ([4]; FRET, human FXR, mean ± SE, n = 4) [%] | EC50 ([4]; FRET, human FXR, mean ± SE, n = 4, read-out: Cell-Free Assay EC50) [nM] | Potency in activating FXR relative to CDCA (concentration for Scr-1 recruitment lower than CDCA) [4] | Potency in activating FXR relative to CDCA (concentration for Scr-1 recruitment lower than CDCA) ([4]; listed as compound (Ia)) [fold] | EC50 ([4]; concentrations ranging from 1 nM to 100 μM, read-out: EC50 as FXR ligand in cell free FRET assay (Table 2 summary)) [nM] | Transactivation of FXR [5] | Transactivation of FXR ([5]; listed as compound (Ia))
C[C@H](CCC(=O)O)[C@H]1CC[C@H]2[C@@H]3[C@H](O)C[C@@H]4C[C@H](O)CC[C@]4(C)[C@H]3CC[C@]12C [CDCA, chenodeoxycholic acid, reference compound] | 2-3 fold | 60-70% | no direct cell toxicity |  |  |  |  |  |  |  |  |  | 
CC[C@H]1[C@@H](O)[C@@H]2[C@H](CC[C@]3(C)[C@@H]([C@H](C)CCC(=O)O)CC[C@@H]23)[C@@]2(C)CC[C@@H](O)C[C@@H]12 [Compound 6-ECDCA, 6-ethyl-chenodeoxycholic acid] |  |  | no direct cell toxicity |  |  |  |  |  |  |  |  |  | 
C[C@H](CCNC(=O)OC/C=C/c1ccccc1)[C@H]1CCC2C3C(CC[C@@]21C)[C@@]1(C)CC[C@@H](O)CC1C[C@H]3O (stereo partly drawn) [Compound (Ia), 23-N-Carbacinnamyloxy-3α,7α-dihydroxy-5β-norcholanylamine] |  |  | no direct cell toxicity | approximately 13 fold | 79 to 84 | selective FXR ligand | 66 | 592 | approximately 20 fold | ~20 | ~500 | transactivation | transactivates FXR
